Reference: patent US10301357B2, “Therapeutics for the induction of endogenous steroidogenesis and methods associated with their identification” (THE ROYAL INSTITUTION FOR THE ADVANCEMENT OF …, priority 2013, dated 2019)
“Also recorded” adds a separate entry of the source. Square brackets hold non-standard residues; d marks the D form. Peptide text beside a SMILES is read from it. dPhe(4-Cl) = N[C@H](Cc1ccc(Cl)cc1)C(=O)O; d2Nal = N[C@H](Cc1ccc2ccccc2c1)C(=O)O; dCit = NC(=O)NCCC[C@@H](N)C(=O)O; d3Pal = N[C@H](Cc1cccnc1)C(=O)O

Key:
[1] = test system: MA-10 mouse Leydig tumor cells; assay: Progesterone production by MA-10 cells after 8-Br-cAMP (RIA); assay type: cell-based; conditions: 10 μM 19-Atriol with TVS167, 8-Br-cAMP 120 min
Method: Cell culture, treatments, and steroid measurement. MA-10 mouse Leydig tumor cells were maintained in DMEM/Ham's nutrient mixture F12 (Gibco, Burlington, ON) supplemented with 5% fetal bovine serum, 2.5% hoarse serum, and 1% penicillin and streptomycin at 37° C. and 3.7% CO2. Cells were incubated in serum-free cell culture media supplemented with 1 mM 8-Bromo-cAMP (Enzo Biosciences, Farmingdale, N.Y.) or […] (50 ng/ml) hCG for 15, 30, 60, and 120 min or as indicated. Human NCL-H295R cells were maintained in DMEM/F12 media supplemented with 2.5% Ultroser G (Pall Biospera, Mississauga, ON), 1% penicillin/streptomycin (Invitrogen, Carlsbad, Calif.), and 1% ITS+ Premix (BD Biosciences, Franklin Lakes, N.J.) in a humidified chamber at 37° C. and 5% CO2.
Experiments involving the TV peptides included 1×10^3 MA-10 or NCL-H295R cells, which were initially cultured for 24 hrs. Serum-free media were supplemented with 250 nM TV fusion peptides, and cells were incubated for 90 min after optimization. […]
Progesterone or testosterone levels were measured with specific RIAs in triplicate using commercial anti-sera from rabbit and sheep, respectively (MP Biomedicals, Santa Ana, Calif.). Protein levels in MA-10 cell lysates were determined with the Bradford dye assay (Bio-Rad). LH and corticosterone levels were measured with rat-specific ELISA kits (CUSABIO, Wuhan, China).

[2] = test system: adult Sprague-Dawley rats; assay: Cetrorelix i.p. injection, suppression of T and LH; assay type: in vivo, rat
Method: Animals studies. Animals were handled according to protocols approved by the McGill University Animal Care and Use Committees. 60- to 64-day-old male Sprague-Dawley rats were purchased from Charles River, Senneville, QC. Rats were provided standard diets and tap water ad libitum and were maintained in controlled conditions (24° C., 12-h light, 12-h dark schedule). Animals were euthanized, and the testes were either immediately used for organ culture or intratesticular fluid collection, or testes and adrenal glands were snap-frozen for sectioning. Bolus injections with water or indicated doses of TV peptides were performed after administering isofluorane anesthesia. Rats were injected with either water or the indicated dose of TV fusion peptide. When FGIN-1-27 (Sigma-Aldrich, St. Louis, Mo.) was used, 8.5 μg in 50 μl (390 μM) of the compound in 1% DMSO solution containing Tween-20™ was injected into one of the testes of 68-72 day old Sprague-Dawley rats. Animals were incubated in standard conditions for 2 hrs. Surgeries were performed on 60- to 64-day-old rats bolus injection of water or TV peptides. Alzet mini-osmotic pumps releasing 75 ng of filled with water or a TV peptide or water over a course of 24 hrs was surgically implanted in the abdomen. The pumps were connected to a polyethylene catheter tubing (Alzet) and directed to the injected testis. […]

Sprague-Dawley rats = assay: FGIN-1-27 bolus intratesticular injection, T levels after 2 hrs; assay type: in vivo, rat; conditions: for intratesticular T levels / plasma T levels: 8.5 μg bolus, 2 hrs
Method: Animals studies. Animals were handled according to protocols approved by the McGill University Animal Care and Use Committees. 60- to 64-day-old male Sprague-Dawley rats were purchased from Charles River, Senneville, QC. Rats were provided standard diets and tap water ad libitum and were maintained in controlled conditions (24° C., 12-h light, 12-h dark schedule). Animals were euthanized, and the testes were either immediately used for organ culture or intratesticular fluid collection, or testes and adrenal glands were snap-frozen for sectioning. Bolus injections with water or indicated doses of TV peptides were performed after administering isofluorane anesthesia. Rats were injected with either water or the indicated dose of TV fusion peptide. When FGIN-1-27 (Sigma-Aldrich, St. Louis, Mo.) was used, 8.5 μg in 50 μl (390 μM) of the compound in 1% DMSO solution containing Tween-20™ was injected into one of the testes of 68-72 day old Sprague-Dawley rats. Animals were incubated in standard conditions for 2 hrs. Surgeries were performed on 60- to 64-day-old rats bolus injection of water or TV peptides. Alzet mini-osmotic pumps releasing 75 ng of filled with water or a TV peptide or water over a course of 24 hrs was surgically implanted in the abdomen. The pumps were connected to a polyethylene catheter tubing (Alzet) and directed to the injected testis. The pump released 75 ng TV peptide to the testis over a course of 24 hrs at the rate of 1 μl/hour. GnRH antagonist, Cetrorelix™ (Sigma Aldrich) was injected into 59-day-old rats intraperitoneally (i.p.) at 0.4 mg/animal/day for 0-4 days (Horvath et al. 2004). Animal dissection was performed after CO2 anesthesia. Cardiac puncture was used for blood collection, and further centrifugation yielded serum separation. Testes were dissected and either decapsulated for intratesticular fluid collection or snap-frozen for sectioning.
To further assess the link between VDAC1 and TSPO function in vivo, the acute effect of TVS167 was compared to that of a well characterized high affinity TSPO drug ligand, N,N-dihexyl-2-(4-fluorophenyl)indole-3-acetamide (FGIN-1-27) (Perheentupa et al. 2009), in the absence of LH signaling. Sprague-Dawley rats of 68-72 days old were given an i.p. injected of either H2O or 0.4 mg Cetrorelix™ for 0-4 days. On day 4, a bolus intratesticular injection of 8.5 μg FGIN-1-27 or its solvent (control) was given to one testis per animal. To assess the acute effect of this TSPO drug ligand on steroidogenesis intratesticular and circulating T levels were measured after 2 hrs.

SMILES: C[C@]12CC[C@H]3[C@@H](CC=C4C[C@@H](O)CC[C@@]43CO)[C@@H]1CC[C@@H]2O [19-Atriol]
- effect on TVS167-stimulated steroid formation [1]: stimulatory effect of TVS167 on steroid formation was blocked

SMILES: CC(=O)N[C@H](Cc1ccc2ccccc2c1)C(=O)N[C@H](Cc1ccc(Cl)cc1)C(=O)N[C@H](Cc1cccnc1)C(=O)N[C@@H](CO)C(=O)N[C@@H](Cc1ccc(O)cc1)C(=O)N[C@H](CCCNC(N)=O)C(=O)N[C@@H](CC(C)C)C(=O)N[C@@H](CCCNC(=N)N)C(=O)N1CCC[C@H]1C(=O)N[C@H](C)C(N)=O [Cetrorelix] (Ac-[d2Nal][dPhe(4-Cl)][d3Pal]SY[dCit]LRP[dA]-NH2)
- T levels in testes and serum ([2]; 0.4 mg/day i.p. for four days): completely suppressed; also recorded: blocked
- LH release ([2]; adult rats): blocked LH release

SMILES: CCCCCCN(CCCCCC)C(=O)Cc1c(-c2ccc(F)cc2)[nH]c2ccccc12 [FGIN-1-27, N,N-dihexyl-2-(4-fluorophenyl)indole-3-acetamide]
- intratesticular T levels (Sprague-Dawley rats; Cetrorelix-treated rats): significant increase
- plasma T levels (Sprague-Dawley rats; Cetrorelix-treated rats): increased
- intratesticular T levels (Sprague-Dawley rats; control (H2O i.p.) rats): significant increase
- plasma T levels (Sprague-Dawley rats; control (H2O i.p.) rats): increased only in the Cetrorelix-treated animals
- acute T formation in vivo compared with TVS167 (Sprague-Dawley rats; control and Cetrorelix-treated rats): to a lesser extent that TVS167
